# Measured values as given in article PMC9469208 (Journal of Medicinal Chemistry, 2022).
# “And” between values parts separate entries of the source, which are not always exact repeats. Equal entries are not always repeated. Where two headings read alike, the source gives them in different places.
# What was measured:
# human SV2A = target: T1, human SV2A (Homo sapiens, UniProt Q7L0J3); assay: SV2A radioligand binding assay ([3H]brivaracetam); settings: [3H]brivaracetam 3 nM, human SV2A-expressing CHO cell lysate
# T1 construct: expressed in transfected cells; host or cells: CHO cells
# Protocol: (§1) The competitive radioligand-binding assay was essentially performed as previously described.[96],[97] The SV2A-containing preparations, either cell lysate of human SV2A-expressing CHO cells, or membrane preparations of mouse brain cortex, were incubated with the radioligand [^3H]brivaracetam (3 nM) in the absence or presence of test compound for 4 h. Incubation was performed in 500 μL of Tris-buffer (50 mM Tris–HCl, pH 7.4) containing 2 mM MgCl2 at 4 °C on a rocking shaker. […] The test compounds were dissolved in dimethyl sulfoxide (DMSO) and further diluted in DMSO. The DMSO concentration in all vials was adjusted to 2%. The separation of bound and unbound radioligand was performed via rapid vacuum filtration using GF/C glass fiber filters that had been presoaked in Tris-buffer containing 0.1% polyethyleneimine for 30 min. The filters were rapidly washed three times with about 1 mL of Tris-buffer each and subsequently placed in a drying oven at 50 °C for 90 min. The filters were then transferred to scintillation vials and 2.5 mL of scintillation cocktail (ProSafe FC+, Meridian Biotechnologies Ltd.) was added. After an incubation period of at least 9 h, radioactivity was measured in a scintillation counter. Results were analyzed by GraphPad Prism 7.0.
# mouse SV2A = target: T2, mouse SV2A (Mus musculus, UniProt Q9JIS5); assay: SV2A radioligand binding assay ([3H]brivaracetam); settings: mouse brain cortex membranes
# T2 construct: membrane preparations of mouse brain cortex; from tissue; host or cells: mouse brain cortex membranes
# Protocol: as §1
# recombinant human CYP3A4 = target: T3, recombinant human CYP3A4 (Homo sapiens, UniProt P08684); assay: CYP3A4 P450-Glo assay; format: in vitro ADME
# T3 construct: purchased Cerep (Eurofins), Poitiers, France; Promega P450-Glo; in-house COS-7 uptake assays
# Excerpt: (§2) The luminescent CYP3A4 P450-Glo and CYP2D6 P450-Glo assays and protocols were provided by Promega (Madison, WI).[98] The procedures were provided by the manufacturer and were similar as previously reported for the racemate I.[29]
# recombinant human CYP2D6 = target: T4, recombinant human CYP2D6 (Homo sapiens, UniProt P10635); assay: CYP2D6 P450-Glo assay; format: in vitro ADME; settings: only at the highest concentration of 25 μM
# T4 construct: purchased Cerep (Eurofins), Poitiers, France; Promega P450-Glo; in-house COS-7 uptake assays
# Excerpt: as §2
# recombinant human CYP2C9 = target: T5, recombinant human CYP2C9 (Homo sapiens, UniProt P11712); assay: CYP2C9 activity assay; format: in vitro ADME; settings: comparable to the racemate
# T5 construct: purchased Cerep (Eurofins), Poitiers, France; Promega P450-Glo; in-house COS-7 uptake assays
# GlyRA1 = target: T6, GlyRA1 (Homo sapiens, UniProt P23415); format: cell-based
# T6 construct: purchased Cerep (Eurofins), Poitiers, France; Promega P450-Glo; in-house COS-7 uptake assays
# T6 sequence (P23415 29-457): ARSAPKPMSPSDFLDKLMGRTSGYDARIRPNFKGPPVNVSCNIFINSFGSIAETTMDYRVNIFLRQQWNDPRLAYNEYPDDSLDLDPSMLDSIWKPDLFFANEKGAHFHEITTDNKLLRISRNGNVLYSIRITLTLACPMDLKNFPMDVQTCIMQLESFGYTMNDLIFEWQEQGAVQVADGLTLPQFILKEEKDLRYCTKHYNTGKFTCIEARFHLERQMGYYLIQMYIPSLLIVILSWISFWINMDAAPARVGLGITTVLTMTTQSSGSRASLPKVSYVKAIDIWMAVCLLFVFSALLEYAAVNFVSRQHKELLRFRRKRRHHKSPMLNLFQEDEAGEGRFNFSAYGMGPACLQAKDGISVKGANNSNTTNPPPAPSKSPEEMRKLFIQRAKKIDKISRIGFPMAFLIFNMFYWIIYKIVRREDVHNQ
# Glutamate, NMDA, Glycine = Glutamate, NMDA, Glycine (Rattus norvegicus, UniProt P35439); assay: Glutamate NMDA glycine [3H]MDL 105,519 binding; settings: read-out: % Inhibition of control specific binding, Glutamate, NMDA, Glycine [3H] MDL 105,519
# Excerpt: (§3) The general information is listed in the Supporting Information.
# [1] = target: T7, GLYT1 Glycine Transporter (Homo sapiens, UniProt P48067); assay: GLYT1 glycine transporter binding; settings: rat brain, listed as (R)-7 [(R)-AS-1]
# T7 construct: purchased Cerep (Eurofins), Poitiers, France; Promega P450-Glo; in-house COS-7 uptake assays
# Excerpt: as §3
# mGlu2 (h) = target: T8, mGlu2 (h) (Homo sapiens, UniProt Q14416); assay: mGlu2 (h) binding (antagonist radioligand); settings: human recombinant (Chem-1 cells), read-out: % Inhibition of control specific binding, mGlu2 (h)
# T8 construct: purchased Cerep (Eurofins), Poitiers, France; Promega P450-Glo; in-house COS-7 uptake assays
# Excerpt: as §3
# mGluR1 = target: T9, mGluR1 (Rattus norvegicus, UniProt P23385); assay: mGluR1 binding (agonist radioligand); settings: read-out: % Inhibition of control specific binding, mGluR1
# T9 construct: purchased Cerep (Eurofins), Poitiers, France; Promega P450-Glo; in-house COS-7 uptake assays
# mGluR5 (h) = target: T10, mGluR5 (h) (Homo sapiens, UniProt P41594); assay: mGluR5 (h) binding (agonist radioligand); settings: human recombinant, read-out: % Inhibition of control specific binding, mGluR5 (h)
# T10 construct: purchased Cerep (Eurofins), Poitiers, France; Promega P450-Glo; in-house COS-7 uptake assays
# Excerpt: as §3
# Acetylcholinesterase (h) = target: T11, Acetylcholinesterase (h) (Homo sapiens, UniProt P22303); assay: Acetylcholinesterase (h) enzymatic activity; format: biochemical; settings: read-out: % Inhibition, Acetylcholinesterase (h) enzymatic activity
# T11 construct: purchased Cerep (Eurofins), Poitiers, France; Promega P450-Glo; in-house COS-7 uptake assays
# Excerpt: as §3
# Alpha 1A (h) = target: T12, Alpha 1A (h) (Homo sapiens, UniProt P35348); assay: Alpha 1A (h) functional assay; format: cell-based
# T12 construct: purchased Cerep (Eurofins), Poitiers, France; Promega P450-Glo; in-house COS-7 uptake assays
# T12 sequence (P35348 whole entry): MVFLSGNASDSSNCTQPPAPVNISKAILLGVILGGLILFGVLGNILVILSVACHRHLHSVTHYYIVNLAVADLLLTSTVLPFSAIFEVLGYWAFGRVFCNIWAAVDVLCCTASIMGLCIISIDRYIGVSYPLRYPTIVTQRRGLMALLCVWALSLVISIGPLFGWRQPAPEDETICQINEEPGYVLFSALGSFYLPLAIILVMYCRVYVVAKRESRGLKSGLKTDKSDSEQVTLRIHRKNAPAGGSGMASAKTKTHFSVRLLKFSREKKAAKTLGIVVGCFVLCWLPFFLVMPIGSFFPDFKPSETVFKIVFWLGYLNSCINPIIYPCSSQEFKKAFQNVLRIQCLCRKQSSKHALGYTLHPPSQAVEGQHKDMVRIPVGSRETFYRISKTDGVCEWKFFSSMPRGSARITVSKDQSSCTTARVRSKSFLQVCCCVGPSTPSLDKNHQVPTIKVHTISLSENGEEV
# Excerpt: as §3
# CB1 (h) = target: T13, CB1 (h) (Homo sapiens, UniProt P21554); assay: CB1 (h) functional assay; format: cell-based
# T13 construct: purchased Cerep (Eurofins), Poitiers, France; Promega P450-Glo; in-house COS-7 uptake assays
# T13 sequence (P21554 whole entry): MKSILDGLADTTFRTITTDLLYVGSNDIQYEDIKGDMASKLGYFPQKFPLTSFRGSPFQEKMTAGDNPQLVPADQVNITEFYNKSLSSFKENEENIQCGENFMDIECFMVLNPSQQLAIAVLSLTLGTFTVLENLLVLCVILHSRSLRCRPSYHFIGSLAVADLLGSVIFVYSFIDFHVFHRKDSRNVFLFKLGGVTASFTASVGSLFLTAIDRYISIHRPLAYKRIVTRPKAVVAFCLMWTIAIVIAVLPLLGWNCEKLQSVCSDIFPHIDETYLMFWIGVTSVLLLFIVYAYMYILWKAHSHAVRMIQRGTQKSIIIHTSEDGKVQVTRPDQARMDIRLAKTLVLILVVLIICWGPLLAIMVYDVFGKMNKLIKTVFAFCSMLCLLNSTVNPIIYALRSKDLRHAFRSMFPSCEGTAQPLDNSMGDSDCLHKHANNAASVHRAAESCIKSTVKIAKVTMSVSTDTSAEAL
# Excerpt: as §3
# D1 (h) = target: T14, D1 (h) (Homo sapiens, UniProt P21728); assay: D1 (h) functional assay; format: cell-based
# T14 construct: purchased Cerep (Eurofins), Poitiers, France; Promega P450-Glo; in-house COS-7 uptake assays
# Excerpt: as §3
# D2L (h) = target: T15, D2L (h) (Homo sapiens, UniProt P14416); assay: D2L (h) functional assay; format: cell-based
# T15 construct: purchased Cerep (Eurofins), Poitiers, France; Promega P450-Glo; in-house COS-7 uptake assays
# T15 sequence (P14416 whole entry): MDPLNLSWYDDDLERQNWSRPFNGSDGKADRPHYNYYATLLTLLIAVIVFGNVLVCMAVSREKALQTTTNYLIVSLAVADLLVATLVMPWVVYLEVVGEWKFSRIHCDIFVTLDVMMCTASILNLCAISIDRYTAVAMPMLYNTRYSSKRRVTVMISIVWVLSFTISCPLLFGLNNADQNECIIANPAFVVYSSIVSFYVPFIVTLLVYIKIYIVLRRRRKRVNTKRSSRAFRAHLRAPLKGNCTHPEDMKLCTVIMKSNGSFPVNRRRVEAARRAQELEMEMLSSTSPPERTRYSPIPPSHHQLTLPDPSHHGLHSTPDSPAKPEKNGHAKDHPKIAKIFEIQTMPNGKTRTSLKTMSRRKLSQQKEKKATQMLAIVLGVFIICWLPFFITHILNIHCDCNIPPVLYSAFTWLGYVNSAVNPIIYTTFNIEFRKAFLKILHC
# Excerpt: as §3
# sst2 (h) = target: T16, sst2 (h) (Homo sapiens, UniProt P30874); assay: sst2 (h) functional assay; format: cell-based
# T16 construct: purchased Cerep (Eurofins), Poitiers, France; Promega P450-Glo; in-house COS-7 uptake assays
# T16 sequence (P30874 whole entry): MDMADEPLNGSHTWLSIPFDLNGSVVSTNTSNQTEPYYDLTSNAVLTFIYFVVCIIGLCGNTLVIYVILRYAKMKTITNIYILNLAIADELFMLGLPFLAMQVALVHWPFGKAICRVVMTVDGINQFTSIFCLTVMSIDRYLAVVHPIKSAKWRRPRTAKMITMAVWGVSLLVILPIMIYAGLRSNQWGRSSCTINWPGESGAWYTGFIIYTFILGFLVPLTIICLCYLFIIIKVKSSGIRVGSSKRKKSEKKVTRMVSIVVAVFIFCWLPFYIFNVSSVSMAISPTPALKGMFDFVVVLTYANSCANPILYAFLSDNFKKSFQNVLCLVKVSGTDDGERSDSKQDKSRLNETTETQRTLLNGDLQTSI
# Excerpt: as §3
# sst4 (h) = target: T17, sst4 (h) (Homo sapiens, UniProt P31391); assay: sst4 (h) functional assay; format: cell-based
# T17 construct: purchased Cerep (Eurofins), Poitiers, France; Promega P450-Glo; in-house COS-7 uptake assays
# Excerpt: as §3
# 5-HT6 (h) = target: T18, 5-HT6 (h) (Homo sapiens, UniProt P50406); assay: 5-HT6 (h) functional assay; format: cell-based
# T18 construct: purchased Cerep (Eurofins), Poitiers, France; Promega P450-Glo; in-house COS-7 uptake assays
# T18 sequence (P50406 whole entry): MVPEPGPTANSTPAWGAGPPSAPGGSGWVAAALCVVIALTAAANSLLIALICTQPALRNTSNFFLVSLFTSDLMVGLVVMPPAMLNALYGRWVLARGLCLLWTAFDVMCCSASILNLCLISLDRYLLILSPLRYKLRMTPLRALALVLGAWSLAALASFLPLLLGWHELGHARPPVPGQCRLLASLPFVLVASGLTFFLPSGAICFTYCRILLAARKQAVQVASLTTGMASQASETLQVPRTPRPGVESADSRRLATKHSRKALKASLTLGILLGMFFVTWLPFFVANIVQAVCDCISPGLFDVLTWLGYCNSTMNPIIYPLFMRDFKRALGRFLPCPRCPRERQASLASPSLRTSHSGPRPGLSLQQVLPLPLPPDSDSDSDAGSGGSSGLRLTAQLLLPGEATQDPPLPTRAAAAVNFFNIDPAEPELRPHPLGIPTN
# Excerpt: as §3
# 5-HT7 (h) = target: T19, 5-HT7 (h) (Homo sapiens, UniProt P34969); assay: 5-HT7 (h) functional assay; format: cell-based
# T19 construct: purchased Cerep (Eurofins), Poitiers, France; Promega P450-Glo; in-house COS-7 uptake assays
# T19 sequence (P34969 whole entry): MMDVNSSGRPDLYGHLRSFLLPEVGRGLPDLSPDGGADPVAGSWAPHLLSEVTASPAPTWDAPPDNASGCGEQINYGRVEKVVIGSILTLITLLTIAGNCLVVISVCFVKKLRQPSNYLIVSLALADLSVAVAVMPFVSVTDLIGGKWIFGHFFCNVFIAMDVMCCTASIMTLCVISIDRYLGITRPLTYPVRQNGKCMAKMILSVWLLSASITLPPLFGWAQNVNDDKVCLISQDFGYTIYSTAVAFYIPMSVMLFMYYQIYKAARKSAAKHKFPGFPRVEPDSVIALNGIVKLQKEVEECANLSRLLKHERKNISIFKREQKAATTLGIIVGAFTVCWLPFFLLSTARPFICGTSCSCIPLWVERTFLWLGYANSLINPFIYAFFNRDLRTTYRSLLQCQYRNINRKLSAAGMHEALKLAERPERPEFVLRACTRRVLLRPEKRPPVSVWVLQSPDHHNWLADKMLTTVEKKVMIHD
# Excerpt: as §3
# Dopamine transporter (h) = target: T20, Dopamine transporter (h) (Homo sapiens, UniProt Q01959); assay: Dopamine transporter (h) (antagonist radioligand); format: binding; settings: read-out: % Inhibition, Dopamine transporter (h)
# T20 construct: purchased Cerep (Eurofins), Poitiers, France; Promega P450-Glo; in-house COS-7 uptake assays
# Excerpt: as §3
# [2] = target: T21, Norepinephrine transporter (h) (Homo sapiens, UniProt P23975); assay: Norepinephrine transporter (h) (antagonist radioligand); format: binding; settings: read-out: % Inhibition, Norepinephrine transporter (h)
# T21 construct: purchased Cerep (Eurofins), Poitiers, France; Promega P450-Glo; in-house COS-7 uptake assays
# Excerpt: as §3
# EAAT1 = EAAT1 (Homo sapiens, UniProt P43003); settings: transfected COS-7 cells
# EAAT3 = EAAT3 (Homo sapiens, UniProt P43005); settings: transfected COS-7 cells
# [3] = 100 mg/kg i.p., mice
# hERG potassium channel = hERG potassium channel (Homo sapiens, UniProt Q12809); assay: in vitro
# hCav3.2 = hCav3.2 (Homo sapiens, UniProt O95180); assay: cell-based
# Sequence of hCav3.2 (O95180 whole entry): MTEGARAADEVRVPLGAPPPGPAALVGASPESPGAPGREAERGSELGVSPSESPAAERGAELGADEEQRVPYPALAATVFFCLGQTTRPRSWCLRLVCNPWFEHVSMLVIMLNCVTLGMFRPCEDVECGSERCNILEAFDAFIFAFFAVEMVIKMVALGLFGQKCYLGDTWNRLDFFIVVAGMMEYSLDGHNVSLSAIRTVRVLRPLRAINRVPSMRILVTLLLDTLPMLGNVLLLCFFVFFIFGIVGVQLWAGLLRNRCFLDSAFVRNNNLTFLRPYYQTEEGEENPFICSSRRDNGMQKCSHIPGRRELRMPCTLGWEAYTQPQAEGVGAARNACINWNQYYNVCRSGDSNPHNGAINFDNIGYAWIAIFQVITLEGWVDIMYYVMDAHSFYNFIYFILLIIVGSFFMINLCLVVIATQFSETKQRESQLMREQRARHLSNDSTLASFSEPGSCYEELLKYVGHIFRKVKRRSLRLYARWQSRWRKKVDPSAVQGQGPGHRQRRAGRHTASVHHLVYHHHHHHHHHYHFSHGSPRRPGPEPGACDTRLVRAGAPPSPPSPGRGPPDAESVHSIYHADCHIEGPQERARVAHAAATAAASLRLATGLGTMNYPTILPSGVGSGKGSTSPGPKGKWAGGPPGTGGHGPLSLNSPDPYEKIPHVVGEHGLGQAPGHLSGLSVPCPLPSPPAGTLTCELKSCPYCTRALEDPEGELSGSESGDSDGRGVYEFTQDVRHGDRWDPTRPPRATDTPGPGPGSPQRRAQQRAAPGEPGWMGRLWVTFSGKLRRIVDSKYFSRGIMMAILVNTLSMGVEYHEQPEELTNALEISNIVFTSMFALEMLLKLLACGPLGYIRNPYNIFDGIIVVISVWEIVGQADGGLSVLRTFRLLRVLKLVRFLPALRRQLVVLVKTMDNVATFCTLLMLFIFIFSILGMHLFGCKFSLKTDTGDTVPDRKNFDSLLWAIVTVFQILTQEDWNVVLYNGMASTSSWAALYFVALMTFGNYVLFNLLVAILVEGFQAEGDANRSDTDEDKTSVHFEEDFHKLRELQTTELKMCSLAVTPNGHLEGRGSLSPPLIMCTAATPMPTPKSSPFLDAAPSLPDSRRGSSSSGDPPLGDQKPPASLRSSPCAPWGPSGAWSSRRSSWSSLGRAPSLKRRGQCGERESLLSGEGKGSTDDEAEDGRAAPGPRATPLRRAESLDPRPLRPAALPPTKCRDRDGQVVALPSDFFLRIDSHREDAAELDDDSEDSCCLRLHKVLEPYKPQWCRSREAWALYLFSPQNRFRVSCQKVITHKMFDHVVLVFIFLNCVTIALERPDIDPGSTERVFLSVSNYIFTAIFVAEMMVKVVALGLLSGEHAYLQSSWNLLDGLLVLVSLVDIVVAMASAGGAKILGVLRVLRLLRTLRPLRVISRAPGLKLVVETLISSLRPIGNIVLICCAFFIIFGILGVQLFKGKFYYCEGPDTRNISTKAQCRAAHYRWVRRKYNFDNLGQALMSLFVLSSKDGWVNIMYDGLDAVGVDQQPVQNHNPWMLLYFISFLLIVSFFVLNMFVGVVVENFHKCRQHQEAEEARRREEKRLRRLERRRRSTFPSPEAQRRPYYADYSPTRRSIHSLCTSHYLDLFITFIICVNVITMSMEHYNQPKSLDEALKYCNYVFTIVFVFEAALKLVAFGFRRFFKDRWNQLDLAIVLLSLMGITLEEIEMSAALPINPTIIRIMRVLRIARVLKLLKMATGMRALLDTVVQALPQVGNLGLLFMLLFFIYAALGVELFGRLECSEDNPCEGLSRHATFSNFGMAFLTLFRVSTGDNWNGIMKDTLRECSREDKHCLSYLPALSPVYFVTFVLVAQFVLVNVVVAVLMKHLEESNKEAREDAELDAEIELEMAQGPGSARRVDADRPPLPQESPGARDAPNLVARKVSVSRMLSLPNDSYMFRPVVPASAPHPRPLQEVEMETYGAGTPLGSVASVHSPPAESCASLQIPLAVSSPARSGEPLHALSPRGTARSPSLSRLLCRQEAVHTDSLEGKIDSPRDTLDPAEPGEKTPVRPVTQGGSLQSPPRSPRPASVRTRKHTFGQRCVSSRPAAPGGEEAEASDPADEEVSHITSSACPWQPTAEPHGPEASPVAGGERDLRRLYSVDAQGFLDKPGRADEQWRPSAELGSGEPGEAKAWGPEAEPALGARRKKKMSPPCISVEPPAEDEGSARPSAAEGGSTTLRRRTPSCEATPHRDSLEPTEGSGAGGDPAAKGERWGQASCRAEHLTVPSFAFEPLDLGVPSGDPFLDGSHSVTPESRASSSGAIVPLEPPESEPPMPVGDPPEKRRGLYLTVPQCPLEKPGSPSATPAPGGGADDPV
# [4] = 100 μM, listed as (R)-7 [(R)-AS-1]
# [5] = 10 μM, listed as (R)-7 [(R)-AS-1]
structure (smiles),measurement,setting,value
"C[C@H](C(=O)NCc1ccccc1)N1C(=O)CCC1=O [(R)-7, (R)-N-Benzyl-2-(2,5-dioxopyrrolidin-1-yl)propanamide]",Ki,human SV2A,275 µM and > 250 µM
same,Binding to mouse SV2A,mouse SV2A,no binding observed
same,CYP3A4 activity,"recombinant human CYP3A4; 10 μM, ± SD",100.4 ± 4.2 % of control
same,effect on CYP3A4,recombinant human CYP3A4; only at the highest concentration of 25 μM,slight inhibition
same,effect on CYP2D6,recombinant human CYP2D6,slight activation
same,effect in the CYP2C9 assay,recombinant human CYP2C9,moderate inhibitory effect
same,"GlyRA1 agonist, % Control, Mean",GlyRA1,1.94% and 1.94 (100 µM) %
same,"GlyRA1 agonist, % Control, n1",GlyRA1,1.83%
same,"GlyRA1 agonist, % Control, n2",GlyRA1,2.05%
same,inhibition at 10 µM,"Glutamate, NMDA, Glycine",-3%
same,"% Inhibition of control specific binding, GLYT1 Glycine Transporter",[1]; 10 μM,-2.00% and -1.00%
same,"% Inhibition of control specific binding, GLYT1 Glycine Transporter",[1]; 100 μM,-1.00% and -2.00%
same,inhibition at 50 µM,mGlu2 (h),-8%
same,inhibition at 10 µM,"mGluR1; 10 μM, rat brain",-6.72%
same,inhibition at 100 µM,mGluR1,-6.72%
same,inhibition at 10 µM,mGluR5 (h),-7.78%
same,inhibition at 10 µM,Acetylcholinesterase (h),1.59%
same,"% Effect, Alpha 1A (h) (Agonist effect)",Alpha 1A (h); [4],-2.05% and 2.05 (100 µM) %
same,inhibition at 100 µM,"Alpha 1A (h); read-out: % Inhibition, Alpha 1A (h) (Antagonist effect)",1.28%
same,"% Effect, CB1 (h) (Agonist effect)",CB1 (h); 10 µM (as printed in the xlsx),-6.83 (10 µM) %
same,"% Effect, CB1 (h) (Agonist effect)",CB1 (h); 100 μM,-6.83%
same,inhibition at 100 µM,"CB1 (h); read-out: % Inhibition, CB1 (h) (Antagonist effect)",5.59%
same,"% Effect, D1 (h) (Agonist effect)",D1 (h); [4],1.70% and 1.70 (100 µM) %
same,inhibition at 100 µM,"D1 (h); read-out: % Inhibition, D1 (h) (Antagonist effect)",-2.57%
same,"% Effect, D2L (h) (Agonist effect)",D2L (h); [4],0.22% and 0.22 (100 µM) %
same,inhibition at 100 µM,"D2L (h); read-out: % Inhibition, D2L (h) (Antagonist effect)",3.27%
same,"% Effect, sst2 (h) (Agonist effect)",sst2 (h); [5],0.50% and 0.50 (10 µM) %
same,inhibition at 50 µM,"sst2 (h); 50 μM, read-out: % Inhibition, sst2 (h) (Antagonist effect)",5.25%
same,"% Effect, sst4 (h) (Agonist effect)",sst4 (h); [5],-7.88% and -7.88 (10 µM) %
same,inhibition at 50 µM,"sst4 (h); 50 μM, read-out: % Inhibition, sst4 (h) (Antagonist effect)",8.25%
same,"% Effect, 5-HT6 (h) (Agonist effect)",5-HT6 (h); [4],-0.26% and -0.26 (100 µM) %
same,inhibition at 100 µM,"5-HT6 (h); read-out: % Inhibition, 5-HT6 (h) (Antagonist effect)",-6.42%
same,"% Effect, 5-HT7 (h) (Agonist effect)",5-HT7 (h); [5],-4.26% and -4.26 (10 µM) %
same,inhibition at 10 µM,"5-HT7 (h); read-out: % Inhibition, 5-HT7 (h) (Antagonist effect)",-25%
same,inhibition at 100 µM,Dopamine transporter (h),-2.69%
same,inhibition at 100 µM,[2],3.01%
same,effect on EAAT1-mediated glutamate uptake,EAAT1,no effects
same,effect on EAAT3-mediated glutamate uptake,EAAT3,no effects
same,"AUC0–∞, brain",[3]; listed as (R)-7 [(R)-AS-1],2813.0 μg·min/mL(g) and 2813.04 μg·min/mL(g)
same,"AUC0–∞, serum",[3]; listed as (R)-7 [(R)-AS-1],4625.8 μg·min/mL(g) and 4625.78 μg·min/mL(g)
same,"Cmax, serum",[3]; listed as (R)-7 [(R)-AS-1],82.7 μg/mL(g) and 82.73 μg/mL(g)
same,total clearance,[3]; noncompartmental approach,approx. 0.6 mL/min
same,inhibition at 100 µM,hERG potassium channel,-8.02%
same,inhibition at 100 µM,"hCav3.2; read-out: hCav3.2 % Inhibition, Mean",-0.79%
same,inhibition at 100 µM,"hCav3.2; read-out: hCav3.2 % Inhibition, n1",5.25%
same,inhibition at 100 µM,"hCav3.2; read-out: hCav3.2 % Inhibition, n2",-6.84%
"C[C@@H](C(=O)NCc1ccccc1)N1C(=O)CCC1=O [(S)-7, (S)-N-Benzyl-2-(2,5-dioxopyrrolidin-1-yl)propanamide]",Ki,human SV2A,255 ± 69 µM
same,Binding to mouse SV2A,mouse SV2A,no binding observed
